Assays:
[1] = tested on: fibroblasts (BJ); test: Safety, LDH test in fibroblasts; format: cell-based; details: 48 hours, vs Triton X-100
Method: (§1) In order to test the safety of the compounds, both normal human cells were used: keratinocytes (HaCaT), fibroblasts (BJ), primary melanocytes that occur in the skin, as well as human cancer cells: the hepatocarcinoma line HepG2 and the neuroblastoma line SH-SY5Y, which are considered a model for the assessment of hepatocytotoxicity and neurocytotoxicity. The concentrations of the tested compounds in the range of […] were used in the studies. The cell lines used in the research were purchased from the American Type Culture Collection (ATCC) and were cultured in media recommended by the manufacturer with the addition of FBS and antibiotics in an incubator ensuring appropriate culture conditions, i.e. humidity, temperature and CO2 concentration. Cells were seeded into multiwell plates and incubated with the test compounds for 48 hours. After this time, MTT and LDH tests were performed to assess cell viability. The MTT test is based on the ability to transform the substrate: [3-(4,5-dimethyl-2-thiazolyl)-2,5-diphenyl-2H-tetrazolium bromide into a colored product only by living cells. The absorbance at 570 nm, which corresponds to the absorption maximum for the product, is directly proportional to cell viability. The LDH test is based on testing the activity of the enzyme lactate dehydrogenase in the culture medium, which is released from cells as a result of damage to the cell membrane, e.g. as a result of cell death. Triton X-100 was used as a positive control in the test. The determination is colorimetric, the substrate is transformed by the released enzyme into a colored product, an increase in absorbance indicates a larger amount of the released enzyme, and thus confirms greater damage to cell membranes. Tables 7 and 8 present the results obtained, which correspond to the viability of cells incubated with the compounds in relation to the viability of cells constituting a control sample, i.e. incubated with the solvent (DMSO) at the same concentration as in the case of the groups tested in the MTT test or in relation to the results obtained for the Triton X-100 positive control in the LDH test. They indicate that the compounds are safe at the concentrations tested.

[2] = tested on: S. typhimurium TA1537; test: Ames microplate test, TA1537; format: cell-based, Salmonella typhimurium
Method: Bacteria were grown overnight in growth medium.

[3] = tested on: neuroblastoma SH-SY5Y; test: Safety, MTT test in SH-SY5Y; format: cell-based; details: 48 hours
Method: as §1

[4] = tested on: fibroblasts (BJ); test: Safety, MTT test in fibroblasts; format: cell-based; details: 48 hours
Method: as §1

[5] = tested on: hepatocarcinoma HepG2; test: Safety, LDH test in HepG2; format: cell-based; details: 48 hours, vs Triton X-100
Method: as §1

[6] = tested on: primary melanocytes; test: Safety, MTT test in primary melanocytes; format: cell-based; details: 48 hours
Method: as §1

[7] = tested on: S. typhimurium TA1535; test: Ames microplate test, TA1535;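 also: bacteria exposed 90 min at 37 °C in exposure medium, then 48 h in indicator medium in 384-well plates, yellow (revertant) wells counted per condition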
Method: The study used the Ames microplate test (Ames MPF™ Penta 2 by Xenometrix, Allschwil, Switzerland). Growth medium, exposure medium, indicator medium, positive controls, hepatic microsomal fraction, NADP, glucose-6-phosphate, Salmonella typhimurium and Escherichia coli strains were components of the purchased experimental kit. Bacteria were grown overnight in growth medium. They were then exposed to the test compound at the appropriate concentration in exposure medium without or with the rat microsomal fraction S9 in 24-well plates for 90 min at 37° C. with shaking. Then, indicator medium was added to the wells and pipetted into 384-well plates, which were incubated for 48 hours at 37° C. without shaking. Results were assessed by counting the wells in which the medium turned yellow for each experimental condition.

[8] = tested on: primary melanocytes; test: Safety, LDH test in primary melanocytes; format: cell-based; details: 48 hours, vs Triton X-100
Method: as §1

[9] = tested on: reconstructed human epidermis containing melanocytes MelanoDerm MEL-300-B; test: Melanogenesis inhibition in reconstructed human epidermis containing melanocytes (MelanoDerm); format: cell-based; details: 14 days, MTT
Method: Melanogenesis Inhibition Studies in a Model of Reconstructed Human Epidermis Containing Melanocytes (MelanoDerm by Mattek).
The research was carried out on reconstructed human epidermis containing melanocytes MelanoDerm™ MEL-300-B from MatTek (Bratislava, Slovakia). The ratio of keratinocytes to melanocytes in the epidermis used is 10:1. Only medium purchased from the same manufacturer (EPI-100-NMM-113) was used to culture the epidermis during the experiments. Once the epidermis was obtained, it was transferred to 12-well plates containing 5 mL of medium/well. Plates were used to enable proper contact of the lower parts of the inserts with the substrate (so-called hanging-top plate). Solutions of the compounds were prepared immediately before their application. The solutions were applied to the inserts using a positive displacement pipette and then distributed using a sterile glass bulb headed Pasteur pipette. The application was repeated every 48 hours, a total of 7 applications were performed. Before the next application, each insert was rinsed with sterile DPBS and dried with a sterile cotton buds. The application was also accompanied by a change of the medium. […] The epidermis was cultured in an incubator ensuring appropriate humidity, temperature (37° C.) and CO2 concentration (5%).
The experiment was conducted for 14 days. After this time, the inserts were rinsed with DPBS and dried with a cotton swab. For the selected pool of inserts, tissue viability was assessed using the MTT (Thiazolyl Blue Tetrazolium bromide) test, the remaining ones were used to determine the amount of melanin. To assess viability, the inserts were transferred to 24-well plate containing 0.3 mL of DMEM medium with 1 mg/mL MTT and incubated for 3 hours in an incubator. The epidermis was then placed in 2 mL of isopropanol and the resulting formazan was extracted for 2 hours at room temperature. The absorbance of the samples was measured at 570 nm in a microplate reader and correlated with the absorbance of the control by the formula: % Viability=[OD (570 nm) for test compound/OD (570 nm) for control]×100. To determine the amount of melanin, the inserts were incubated in 5% sodium bicarbonate for 30 min, then dried and placed in 0.5 mL of Solvable™ reagent, which caused complete lysis of the epidermis. After heating at 95° C., the absorbance of the samples was measured at 405 nm in a microplate reader. On this basis, the reduction in the amount of melanin was calculated in relation to the control sample. The absorbance results were also correlated with a standard curve for synthetic melanin.

[10] = tested on: hepatocarcinoma HepG2; test: Safety, MTT test in HepG2; format: cell-based; details: 48 hours
Method: as §1

[11] = tested on: neuroblastoma SH-SY5Y; test: Safety, LDH test in SH-SY5Y; format: cell-based; details: 48 hours, vs Triton X-100
Method: as §1

Question: How did the “LDH, Fibroblasts (BJ)” value ([1]; 100 μM) turn out when `O=C(/C=C/c1ccc(Cl)cc1)NCCCCCO` [Compound A-111, (2E)-3-(4-chlorophenyl)-N-(5-hydroxypentyl)prop-2-enamide] was run?
Answer: Its value is 5.25 percentage of positive control.

Question: What about the “LDH, Fibroblasts (BJ)” value ([1]; 150 μM) of the same compound?
Answer: Its value is 5.37 percentage of positive control.

Question: What about the “LDH, Fibroblasts (BJ)” value ([1]; 200 μM) of the same compound?
Answer: The value was 8.43 percentage of positive control.

Question: And the “LDH, Fibroblasts (BJ)” value ([1]; 250 μM)?
Answer: Its value is 14.90 percentage of positive control.

Question: What about the “Increase in the number of yellow wells compared to the reference level, TA1537” value (shortened to “Increase in the number of yellow wells … TA1537”) ([2]; 0.5 mM, + S9) of the same compound?
Answer: Its value is 0.27.

Question: And the “Increase in the number of yellow wells … TA1537” value ([2]; 0.5 mM, without S9)?
Answer: Its value is 0.80.

Question: And the “Increase in the number of yellow wells … TA1537” value ([2]; 1.0 mM, + S9)?
Answer: The value was 0.45.

Question: What about the “Increase in the number of yellow wells … TA1537” value ([2]; 1.0 mM, without S9) of the same compound?
Answer: The value was 0.54.

Question: What about the “Increase in the number of yellow wells … TA1537” value ([2]; 2.0 mM, + S9) of the same compound?
Answer: The value was 0.27.

Question: What about the “Increase in the number of yellow wells … TA1537” value ([2]; 2.0 mM, without S9) of the same compound?
Answer: The value was 0.54.

Question: And the “MTT, Neuroblastoma SH-SY5Y” value ([3]; 100 μM)?
Answer: The value was 100.14 ± 3.22 % of solvent control.

Question: What about the “MTT, Neuroblastoma SH-SY5Y” value ([3]; 150 μM) of the same compound?
Answer: The value was 99.32 ± 3.36 % of solvent control.

Question: And the “MTT, Neuroblastoma SH-SY5Y” value ([3]; 200 μM)?
Answer: Its value is 100.55 ± 2.31 % of solvent control.

Question: What about the “MTT, Neuroblastoma SH-SY5Y” value ([3]; 250 μM) of the same compound?
Answer: The value was 99.93 ± 4.36 % of solvent control.

Question: And the “MTT, Fibroblasts (BJ)” value ([4]; 100 μM)?
Answer: The value was 99.88 ± 5.25 % of solvent control.

Question: What about the “MTT, Fibroblasts (BJ)” value ([4]; 150 μM) of the same compound?
Answer: The value was 100.94 ± 3.37 % of solvent control.

Question: And the “MTT, Fibroblasts (BJ)” value ([4]; 200 μM)?
Answer: Its value is 98.94 ± 4.04 % of solvent control.

Question: What about the “MTT, Fibroblasts (BJ)” value ([4]; 250 μM) of the same compound?
Answer: The value was 94.51 ± 5.03 % of solvent control.

Question: And the “LDH, Hepatocarcinoma HepG2” value ([5]; 100 μM)?
Answer: Its value is 4.90 percentage of positive control.

Question: And the “LDH, Hepatocarcinoma HepG2” value ([5]; 150 μM)?
Answer: The value was 4.73 percentage of positive control.

Question: And the “LDH, Hepatocarcinoma HepG2” value ([5]; 200 μM)?
Answer: Its value is 5.48 percentage of positive control.

Question: And the “LDH, Hepatocarcinoma HepG2” value ([5]; 250 μM)?
Answer: Its value is 9.75 percentage of positive control.

Question: And the “MTT, Primary melanocytes” value ([6]; 100 μM)?
Answer: Its value is 104.51 ± 1.19 % of solvent control.

Question: And the “MTT, Primary melanocytes” value ([6]; 150 μM)?
Answer: The value was 103.09 ± 1.79 % of solvent control.

Question: And the “MTT, Primary melanocytes” value ([6]; 200 μM)?
Answer: Its value is 99.25 ± 1.92 % of solvent control.

Question: What about the “MTT, Primary melanocytes” value ([6]; 250 μM) of the same compound?
Answer: Its value is 93.39 ± 1.60 % of solvent control.

Question: And the “Increase in the number of yellow wells compared to the reference level, TA1535” value (shortened to “Increase in the number of yellow wells … TA1535”) ([7]; 0.5 mM, + S9)?
Answer: Its value is 0.58.

Question: What about the “Increase in the number of yellow wells … TA1535” value ([7]; 0.5 mM, without S9) of the same compound?
Answer: Its value is 0.55.

Question: What about the “Increase in the number of yellow wells … TA1535” value ([7]; 1.0 mM, + S9) of the same compound?
Answer: Its value is 0.35.

Question: What about the “Increase in the number of yellow wells … TA1535” value ([7]; 1.0 mM, without S9) of the same compound?
Answer: The value was 0.18.

Question: What about the “Increase in the number of yellow wells … TA1535” value ([7]; 2.0 mM, + S9) of the same compound?
Answer: Its value is 0.23.

Question: And the “Increase in the number of yellow wells … TA1535” value ([7]; 2.0 mM, without S9)?
Answer: The value was 1.65.

Question: What about the “LDH, Primary melanocytes” value ([8]; 100 μM) of the same compound?
Answer: Its value is 3.31 percentage of positive control.

Question: What about the “LDH, Primary melanocytes” value ([8]; 150 μM) of the same compound?
Answer: Its value is 4.95 percentage of positive control.

Question: What about the “LDH, Primary melanocytes” value ([8]; 200 μM) of the same compound?
Answer: Its value is 13.38 percentage of positive control.

Question: What about the “LDH, Primary melanocytes” value ([8]; 250 μM) of the same compound?
Answer: The value was 18.41 percentage of positive control.

Question: What about the “Viability [% control, mean ± SD]” value ([9]; 1.0% in 50% PEG (10 μL)) of the same compound?
Answer: The value was 101.45 ± 6.45 % control.

Question: And the “Viability [% control, mean ± SD]” value ([9]; 1.0% in 50% PEG (25 μL))?
Answer: Its value is 85.67 ± 7.25 % control.

Question: What about the “Viability [% control, mean ± SD]” value ([9]; 2.0% in 50% PEG (25 μL)) of the same compound?
Answer: Its value is 106.64 ± 7.78 % control.

Question: And the “MTT, Hepatocarcinoma HepG2” value ([10]; 100 μM)?
Answer: Its value is 101.10 ± 6.01 % of solvent control.

Question: What about the “MTT, Hepatocarcinoma HepG2” value ([10]; 150 μM) of the same compound?
Answer: The value was 97.87 ± 3.27 % of solvent control.

Question: And the “MTT, Hepatocarcinoma HepG2” value ([10]; 200 μM)?
Answer: The value was 98.19 ± 3.27 % of solvent control.

Question: And the “MTT, Hepatocarcinoma HepG2” value ([10]; 250 μM)?
Answer: Its value is 96.27 ± 2.57 % of solvent control.

Question: And the “LDH, Neuroblastoma SH-SY5Y” value ([11]; 100 μM)?
Answer: The value was 4.90 percentage of positive control.

Question: What about the “LDH, Neuroblastoma SH-SY5Y” value ([11]; 150 μM) of the same compound?
Answer: The value was 4.61 percentage of positive control.

Question: And the “LDH, Neuroblastoma SH-SY5Y” value ([11]; 200 μM)?
Answer: The value was 5.98 percentage of positive control.

Question: And the “LDH, Neuroblastoma SH-SY5Y” value ([11]; 250 μM)?
Answer: The value was 6.77 percentage of positive control.
